Test results as given in patent US20240391940A1, “FUSED RING-CONTAINING COMPOUND, APPLICATION THEREOF, AND COMPOSITION CONTAINING SAME” (GenEros Biopharma Ltd., priority 2020, published 2024).
“And” between values parts separate entries of the source, which are not always exact repeats. Equal values may be shown once.

Columns and labels:
[1] = system: STAT5 Y694 phosphorylation; test: HTRF experiment: STAT5 Y694 phosphorylation in Hela cells; format: cell-based, Human; conditions: for Inhibition rate @10 μM: 10 μM compound, 2 h pretreatment, interferon stimulation 30 min
Protocol: A multifunctional microplate reader (TECAN; […] F PLEX); 96-well cell culture plates (Bioyong), HTRF 384-well low volume plates (Cisbio; Cat #66PL384025); Human interferon 0 (IFN-0) (GenScript; Cat #P01574), STAT5 phospho-Y694 kits (Cisbio; Cat #64AT5PEG).
Hela cells (American Type Culture Collection (ATCC), CCL-2) were cultured in a 96-well plate with DMEM containing 5% fetal bovine serum at a density of 3×10^4 cells/well. The cells were incubated overnight in a 37° C., 5% carbon dioxide humidified incubator. The next day, the original DMEM in the 96-well plate was blotted, and equal volumes of medium containing different concentrations of compounds (stock solutions of compounds prepared with dimethyl sulfoxide were diluted to desired concentrations in medium) were added for 2 h of pretreatment. The plate was left to stand in a 37° C. incubator. Human interferon 0 was then added to a final concentration of 10 nM for stimulation. The plate was gently shaken so the contents were well mixed, and the plate was then left to stand in a 37° C. incubator for 30 min.
The medium was removed, and the plate was washed once with an appropriate volume of PBS and then blotted dry. Then 1×lysis buffer was added at 40 μL/well, and the plate was left to stand at room temperature for 30 min (preparation of 1 mL of 1× lysis buffer: mixing well 740 μL of ddH2O with 250 μL of 4× lysis buffer and […]). After 30 min, the cells were repeatedly pipetted until the lysis buffer was not viscous (bubbles were avoided) so that sufficient lysis was achieved.
In an HTRF 384-well low volume plate, 4 μL of an antibody premix (containing two antibodies: Cryptate and d2: the two antibodies were each 20-fold diluted with detection buffer and were then mixed in equal volume to form the antibody premix) and 16 μL of the cell lysate were added to each well. The plate was sealed with a sealing membrane and then incubated overnight at room temperature in a dark place.
After the overnight incubation, signals at 665 nm and 620 nm were detected separately on a multifunctional microplate reader. The calculation formula for the STAT5 Y694 phosphorylation assay is: Ratio=[(signal 665 nm)/(signal 620 nm)]×10^4. A dimethyl sulfoxide-only treatment group was set as a negative control (RatioNegative), and an interferon 0 stimulation group without compound addition was set as a positive control (RatioPositive). The inhibition rates of different samples against STAT5 Y694 phosphorylation were normalized: inhibition rate=[1−(RatioExperiment−RatioNegative)/(RatioPositive−RatioNegative)]×100.

[2] = PK profile in beagles (i.v. / oral gavage, plasma LC-MS); format: in vivo; conditions: female, beagle, dog, analyte = labelled compound
Text: Method: SD rats from acceptable sources (N=3, female, 6-8 weeks, weighing 200-230 g, purchased from JH Laboratory Animal Co. LTD, SCXK (SH) 2017-0012 20170012001153) or beagles (N=3, not experimentally naive animals, female, weighing 6.55-8.62 kg, purchased from Beijing Marshall Biotech Co. Ltd., quality inspection number SCXK (BJ) 2016-0001 110318201100068072) were selected and administered, by intravenous injection or oral gavage (3 animals per route), corresponding doses of the test compound GEN1-117 or GEN1-284s (the sample for intravenous injection was dissolved in a solution of 10% DMSO, 10% Soltol HS15 and 80% PBS, and the sample for oral administration was dissolved in a 0.5% aqueous methylcellulose solution). Peripheral blood samples (150 μL) were taken (at 0, 0.083, 0.25, 0.5, 1, 2, 4, 8 and 24 h for the intravenous injection route; at 0, 0.25, 0.5, 1, 2, 4, 8 and 24 h for the oral injection route; into K2-EDTA anticoagulant tubes; centrifuged at 2000 g at 4 C for 5 min within 15 min), and plasma was separated and subjected to LC-MS analysis (LC-MS/MS-37, triple Quad 6500) using the conventional method with diclofenac as an internal standard. Mass spectrometry conditions: ESI cation, MRM detection:
HPLC conditions: mobile phase A: 0.1% FA in water, mobile phase B: 0.1% FA in ACN
Chromatography column: Waters ACQUITY UPLC HSS T3 (2.1×50 mm, 1.8 μm)
A test sample standard curve was prepared from 1, 2, 10, 30, 100, 300, 1000, 2700 and 3000 ng/mL (50% ACN in water), and 3 μL of standard-curve solution was mixed with 57 μL of same-species blank plasma. A test plasma sample (60 μL) was well mixed with 6 μL of 10% FA in water, and 30 μL of the mixture was taken and well mixed with 200 μL of the internal standard compound diclofenac (40 ng/mL in ACN). After the resulting mixture was vortexed and shaken for 1 min and centrifuged at 5800 rpm for 10 min, 100 μL of the supernatant was transferred to a new test plate, and 1 μL of solution was loaded on an LC-MS/MS system.

[3] = system: adjuvant arthritis (AIA) rat model; test: Rat AIA (adjuvant arthritis) model; format: in vivo, Lewis rats; conditions: for Hind paw volume / body weight / clinical scores: 10 mg/kg daily from day 9, individual animals, 10 mg/kg
[4] = iv, GEN1-284s dosed i.v. 0.5 mg/kg
[5] = po, GEN1-284s dosed p.o. 5 mg/kg

## O=C(Cc1ccc2ncccc2c1)N1CCC(n2c(=O)[nH]c3cccc(C(F)(F)F)c32)CC1 [GEN1-117, 1-(1-(2-(Quinolin-6-yl)acetyl)piperidin-4-yl)-7-(trifluoromethyl)-1H-benzo[d]imidazol-2(3H)-one]
[1]
  Inhibition rate @10 μM: 89.31%
[2]; [4]
  AUC(0-t): 2 µg·h/mL
  half-life: 4.06 h
[2]; [5]
  AUC(0-t): 17.9 µg·h/mL
  Cmax: 2.77 µg/mL
  Tmax: 1.33 h
  bioavailability: 89.8%
  half-life: 4.18 h
[3]
  Maximum arthritis index score compared to the control rats: can effectively relieve the AIA rat arthritis disease model
[3]; AIA rats, GEN1-117 intervention group
  Body weight change: gained significant weight
[3]; AIA rats, daily intraperitoneal injection
  Increase in hind paw volume and clinical score: dose-dependently inhibited
[3]; AIA rats, day 9
  Hind paw volume: 1.23 and 1.41 and 1.46 and 1.38 (2×) and 1.18 and 1.15 and 1.31 and 1.35 and 1.12 and 1.68 and 1.27
  body weight: 166 g and 154 g (2×) and 153 g (2×) and 158 g and 145 g and 169 g (2×) and 175 g and 168 g and 164 g
  clinical scores: 0 (9×) and 0.17 and 1 (2×)
[3]; AIA rats, day 10
  body weight: 156 g and 151 g and 155 g and 152 g (2×) and 143 g and 135 g and 159 g and 165 g and 158 g (3×)
[3]; AIA rats, day 11
  Hind paw volume: 1.19 and 1.3 (2×) and 1.65 and 0.97 and 1.17 and 1.18 (2×) and 1.13 and 1.08 and 1.92 and 1.23
  body weight: 156 g and 150 g and 153 g and 152 g and 140 g and 132 g and 155 g (2×) and 164 g and 158 g and 157 g and 146 g
  clinical scores: 0 (8×) and 0.75 and 2.5 and 1.5 and 0.5
[3]; AIA rats, day 12
  body weight: 158 g and 153 g and 154 g and 155 g and 143 g and 137 g and 159 g and 164 g and 160 g and 156 g and 162 g and 148 g
[3]; AIA rats, day 13
  Hind paw volume: 1.25 (2×) and 1.93 and 2.35 and 1.08 and 1.26 (2×) and 0.84 and 1.38 and 1.03 and 2.32 and 1.28
  body weight: 157 g and 158 g and 155 g and 159 g and 145 g and 143 g and 161 g (2×) and 167 g and 165 g and 169 g and 149 g
  clinical scores: 0 (7×) and 1 (2×) and 3 and 0.17 and 1.67
[3]; AIA rats, day 14
  body weight: 164 g (2×) and 160 g and 155 g and 166 g and 151 g and 150 g (2×) and 170 g (2×) and 173 g and 172 g
[3]; AIA rats, day 15
  Hind paw volume: 1.27 (2×) and 2.03 and 2.2 and 1.04 and 1.1 and 1.38 and 1.08 and 1.11 and 1.26 and 2.93 and 1.66
  body weight: 162 g and 159 g and 151 g (2×) and 169 g and 154 g and 176 g and 174 g (2×) and 170 g and 175 g and 149 g
  clinical scores: 0 (4×) and 2 (2×) and 5.5 and 0.17 (4×) and 3.5
[3]; AIA rats, day 16
  body weight: 165 g and 164 g and 158 g and 135 g and 156 g and 155 g and 180 g and 177 g and 179 g and 175 g and 176 g and 147 g
[3]; AIA rats, day 17
  body weight: 169 g and 170 g and 152 g and 181 g
  clinical scores: 0 (8×) and 1.83 (2×) and 5 and 3.5
[3]; AIA rats, day 17, in mL (unit assumed)
  Hind paw volume: 1.14 and 2.03 and 1.62 and 0.88 and 1.12 and 1.28 and 1.06 and 1.41 and 1.09 and 1.03 and 2.61 and 1.88
[3]; AIA rats, day 19
  clinical scores: 0 (7×) and 2.5 and 4 and 0.5 and 2 and 4.25
[3]; AIA rats, day 19, in mL (unit assumed)
  Hind paw volume: 1.42 and 3.18 and 2.26 and 1.39 and 1.25 and 1.37 and 1.26 and 1.65 and 1.28 and 1.38 and 2.43 and 2.78
[3]; AIA rats, day 21
  Hind paw volume: 1 and 3.15 and 1.95 and 1.08 (2×) and 0.86 and 1.09 and 1.33 and 1.04 and 1.14 and 2.65 and 2.14
  clinical scores: 0 (7×) and 2.67 and 5.33 and 0.5 and 2 and 4.17
[3]; AIA rats, day 23
  Hind paw volume: 0.99 and 3.36 and 2.21 and 1.25 and 0.88 and 0.93 and 0.96 and 1.26 and 1.08 (2×) and 2.87 and 1.89
  clinical scores: 0 (7×) and 3 and 4 (2×) and 0.5 and 2.5
[3]; days 13-23
  Clinical scores compared to the control rats: significant reductions in clinical scores
[3]; days 17-23
  Hind paw volume compared to the control rats: significantly decreased

## O=C(Cc1ccc2ncccc2c1)N1CCC(n2c(=O)n(COP(=O)([O-])[O-])c3cccc(C(F)(F)F)c32)CC1.[Na+].[Na+] [GEN1-284 salt, (2-Oxo-3-(1-(2-(quinolin-6-yl)acetyl)piperidin-4-yl)-4-(trifluoromethyl)-2,3-dihydro-1H-benzo[d]imidazol-1-yl)methyl disodium phosphate]
[1]
  IC50: 2.6 µM
  Inhibition rate @10 μM: 82.46%
[2]; [4]
  AUC(0-t): 0.207 µg·h/mL
  clearance: 2.61 L/h/kg
  half-life: 0.085 h
[2]; iv, GEN1-284s dosed i.v. 0.5 mg/kg, read-out: Vdss
  Vd: 0.155 L/kg
